Laboratory results: article PMC2999418, “Biological Activity and Binding Site Characteristics of the PA1b Entomotoxin on Insects from Different Orders” (Journal of Insect Science, 2007)
Where two headings read alike, the source gives them in different places.

How the values were obtained:
[1] = system: C. albicans; assay: Antifungal test, fungal growth; type: cell-based; conditions: increasing toxin concentration up to 64 µg-ml^-1, 24 and 48 hours
Protocol: (§1) A possible antimicrobial and antifungal activity of PA1b was next tested on four bacterial and three fungal species. The experiments were done using an increasing toxin concentration, up to 64 µg-ml^-1.

[2] = system: A. famigatus; assay: Antifungal test, fungal growth; type: cell-based; conditions: increasing toxin concentration up to 64 µg-ml^-1, 24 and 48 hours
Protocol: as §1

[3] = system: C. glabrata; assay: Antifungal test, fungal growth; type: cell-based; conditions: increasing toxin concentration up to 64 µg-ml^-1, 24 and 48 hours
Protocol: as §1

[4] = molecular target: PA1b binding protein on membrane extracts; assay: 125I-PA1b binding (competition) on insect membrane extracts; set-up: species or system Aphis gossypii; conditions: A. gossypii membrane extracts; competition with purified 3741 isoform
Protocol: (§2) The isolation of membrane proteins for binding studies was performed as described by Gressent et al. ([2003]). For PA1b degradation tests, insect extracts were prepared as follows, 1 g of insects were ground with a mortar and pestle in liquid nitrogen. The resulting powder was resuspended in 2 ml of extraction buffer (20 mM Tris-HCl pH 8; 0.25 M sucrose; 2 mM MgCl2). The slurry was centrifuged for 2 min at 1000 g, and the supernatant was stored at -2O°C until required. All the operations were performed at 4°C.
(§3) The peptidic toxin PA1b-3471 isoform was labelled with I^125 to a specific radioactivity of about 900 Ci.mmor^-1, and then used for binding studies with membrane extracts, according to Gressent et al. ([2003]).
(§4) PA1b binding activity was present in all insect species, except for the resistant weevil strains and the pea specific pest Bruchus pisorum, regardless of the sensitivity or insensitivity of these insects to PA1b toxicity, as evaluated from our insect bioassays. […] The relative abundance of the binding sites was also slightly different in this group of species, varying from 10 pmol/mg of protein for T. pretiosum to a maximum of 79 pmol/mg of protein for M. persicae.

[5] = system: Tribolium castaneum; assay: Red flour beetle adult toxicity test, toxin mixed into diet; type: in vivo; conditions: 1000 µg per g of food, feeding for 15 days
Protocol: The red flour beetle Tribolium castaneum (Coleoptera), was provided by François Bonneton (Centre de Génétique Moléculaire Cellulaire, Lyon, France). Tests were performed on adults by mixing the toxin into the diet (wheat flour 95%, yeast extract 5%).
(§5) All toxicity assays were carried out using a mixture of PA1b isoforms (98% purity by HPLC). All tests were performed on at least 30 insects for assays and for control test (without toxin), except for the three aphid species (50 insects) and for Trichogramma (more than 300 eggs by assays). When adults were used, the insects were synchronized at the imaginal molt. The statistical analyses were performed using the JMP software (SAS, Grégy-sur-Yerres FRA).

[6] = system: midgut extracts from sensitive or resistant S. oryzae; conditions: ref Delobel and Rahbé, personnal communication; cited from earlier work
Excerpt: Stating that the binding activity is widely present, while the toxicity is not, directly implies that other factors strongly influence the toxin toxicity. Pre-binding effects, such as toxin stability in the insect digestive tract, have been commonly described, either for bacterial toxins ([Keller et al. 1996]) or enzyme inhibitors ([Girard et al. 1998]). Although the structural features of PA1b, such as its cystine-knot core ([Jouvensal et al. 2003]), are known to confer high thermal, chemical and proteolytic stability ([Delobel et al. 1998]) the latter point was investigated using commercial ...

[7] = molecular target: PA1b binding protein on membrane extracts; assay: 125I-PA1b binding (competition) on insect membrane extracts; set-up: species or system Trichogramma pretiosum; conditions: T. pretiosum membrane extracts; competition with purified 3741 isoform
Protocol: as §2, §3, §4

[8] = molecular target: PA1b binding protein on membrane extracts; assay: as above; set-up: species or system Ephestia kuehniella; conditions: E. kuehniella membrane extracts; competition with purified 3741 isoform
Protocol: as §2, §3, §4

[9] = molecular target: PA1b binding protein on membrane extracts; conditions: ref Gressent et al (2003), cited from earlier work
Excerpt: Table 1. Affinity (Kd) and relative abundance (Bmax) of the PA1b binding protein on membrane extracts from different insect species and strains. | column: Kd (nM); Bmax (pmol/mg of protein) || Data obtained from competition experiments, using the purified […] isoform as competitor, are shown in Table 1. PA1b binding activity was present in all insect species, except for the resistant weevil strains and the pea specific pest Bruchus pisorum, regardless of the sensitivity or insensitivity of these insects to PA1b toxicity, as evaluated from our insect bioassays. […] The relative abundance of the binding sites was also slight ...

[10] = molecular target: PA1b binding protein on membrane extracts; assay: 125I-PA1b binding (competition) on insect membrane extracts; set-up: species or system Mamestra brassicae; conditions: M. brassicae membrane extracts; competition with purified 3741 isoform
Protocol: as §2, §3, §4

[11] = molecular target: PA1b binding protein on membrane extracts; assay: as above; set-up: species or system Harmonia axyridis; conditions: H. axyridis membrane extracts; competition with purified 3741 isoform
Protocol: as §2, §3, §4

[12] = system: Trichogramma pretiosum; assay: Trichogramma development from eggs to adults on artificial diet with toxin; type: in vivo; conditions: PA1b added to artificial diet; no difference in developmental times compared to control
Protocol: Trichogramma pretiosium. T191 (Hymenoptera) were grown using the artificial diet described in Grenier et al. ([1998]). The toxin was incorporated into the diet, and the development of insects was monitored from eggs to adults.
as §5

[13] = system: P. aeruginosa; assay: Antimicrobial test, bacterial survival; type: cell-based; conditions: increasing toxin concentration up to 64 µg-ml^-1, 24 and 48 hours
Protocol: as §1

[14] = system: S. aureus; assay: Antimicrobial test, bacterial survival; type: cell-based; conditions: increasing toxin concentration up to 64 µg-ml^-1, 24 and 48 hours
Protocol: as §1

[15] = system: E. coli; assay: Antimicrobial test, bacterial survival; type: cell-based; conditions: increasing toxin concentration up to 64 µg-ml^-1, 24 and 48 hours
Protocol: as §1

[16] = system: E. faecium; assay: Antimicrobial test, bacterial survival; type: cell-based; conditions: increasing toxin concentration up to 64 µg-ml^-1, 24 and 48 hours
Protocol: as §1

[17] = molecular target: PA1b binding protein on membrane extracts; assay: 125I-PA1b binding (competition) on insect membrane extracts; set-up: species or system Acyrthosiphon pisum; conditions: A. pisum membrane extracts; competition with purified 3741 isoform
Protocol: as §2, §3, §4

[18] = system: Culex pipiens; assay: Mosquito larval bioassay, toxin added to water; type: in vivo; conditions: 250 µg.ml^-1 of water
Protocol: The mosquito bioassay was performed on larvae of Culex pipiens (Diptera) in water. The toxin was added directly to the water, and the mortality of L3 larvae was recorded daily.
as §5

ASCNGVCSPFEMPPCGTSACRCIPVGLVIGYCR NPSG (bicyclic or more) [PA1b, plant peptide of 37 amino acids purified from pea (Pisum sativum) seeds; entomotoxic cystine-knot peptide with three disulfide bonds]
effect on fungal growth [1]: no effect was detected | effect on fungal growth [2]: no effect was detected | effect on fungal growth [3]: no effect was detected | Kd [4]: 39 nM | effects on adults [5]: no effects were detectable | survival of adults [5]: all insects survived | activity of midgut extracts on PA1b [6]: do not show any activities on PA1b | Kd [7]: 56 nM | Kd [8]: 20 nM | Kd / binding ([9]; S. oryzae resistant strains Mex1, GV, China, ISOR3, membrane extracts): no binding detectable | Kd ([9]; S. oryzae strains WAA42, Benin, Bouriz, membrane extracts): 2 to 4.5 nM | Kd [10]: 20 nM | Kd [11]: 52 nM | growth and development from eggs to adults [12]: normal growth | effect on bacterial survival [13]: no effect was detected | effect on bacterial survival [14]: no effect was detected | effect on bacterial survival [15]: no effect was detected | effect on bacterial survival [16]: no effect was detected | Kd [17]: 58 nM | survival of L3 larvae ([18]; after one day): 100% | survival of L3 larvae ([18]; after two days): 0%
